# According to a compilation of properties of binary mixtures (doi:10.1007/s10953-015-0327-z):
# Assay: xn = mol fraction of the nth substance listed
# Conditions: 298.15 K, 101 kPa
structure (smiles),measurement,setting,value
CCCC[N+]1(C)CCCC1.O=S(=O)([N-]S(=O)(=O)C(F)(F)F)C(F)(F)F + O,speed of sound,x2 = 0.0092,1267.8 m/s
same,speed of sound,x2 = 0.0139,1267.7 m/s
same,speed of sound,x2 = 0.0228,1267.8 m/s
same,speed of sound,x2 = 0.0467,1268.3 m/s
same,speed of sound,x2 = 0.2014,1273.9 m/s
CCCn1cc[n+](C)c1.O=S(=O)([N-]S(=O)(=O)C(F)(F)F)C(F)(F)F + O,speed of sound,x2 = 0.0016,1230.2 m/s
same,speed of sound,x2 = 0.0556,1231.7 m/s
same,speed of sound,x2 = 0.2358,1236 m/s
CC[n+]1ccn(C)c1.N#C[S-] + O,speed of sound,x2 = 0.153,1848.1 m/s
same,speed of sound,x2 = 0.204,1847.8 m/s
CCCC[n+]1ccn(C)c1.O=S(=O)([N-]S(=O)(=O)C(F)(F)F)C(F)(F)F + O,speed of sound,x2 = 0.012,1226.2 m/s
same,speed of sound,x2 = 0.1166,1228.4 m/s
same,speed of sound,x2 = 0.1843,1230.3 m/s
